US6451814B1, “Heterocyclic β-3 adrenergic receptor agonists” (Wyeth, priority 2000, dated 2002)

Key:
[1] = target: T1, human β3-adrenergic receptor (Homo sapiens, UniProt P13945); experiment: cAMP response (SPA kit) in CHO cells transfected with human β3 adrenergic receptor; type: cell-based; conditions: for EC50: CHO cells expressing human β3-AR, 10^-9 M to 10^-5 M, 30 min at 37° C., cAMP by SPA, read-out: EC50(β3); for IA(β3): maximal response of compound compared to maximal response of isoproterenol at 10^-5 M, CHO cells, human β3-AR
T1 construct: Full length β3 AR clones (402 amino acids) containing the last 6 amino acids of hβ3—AR are prepared; expressed in transfected cells; host or cells: CHO cells
T1 sequence (P13945 whole entry): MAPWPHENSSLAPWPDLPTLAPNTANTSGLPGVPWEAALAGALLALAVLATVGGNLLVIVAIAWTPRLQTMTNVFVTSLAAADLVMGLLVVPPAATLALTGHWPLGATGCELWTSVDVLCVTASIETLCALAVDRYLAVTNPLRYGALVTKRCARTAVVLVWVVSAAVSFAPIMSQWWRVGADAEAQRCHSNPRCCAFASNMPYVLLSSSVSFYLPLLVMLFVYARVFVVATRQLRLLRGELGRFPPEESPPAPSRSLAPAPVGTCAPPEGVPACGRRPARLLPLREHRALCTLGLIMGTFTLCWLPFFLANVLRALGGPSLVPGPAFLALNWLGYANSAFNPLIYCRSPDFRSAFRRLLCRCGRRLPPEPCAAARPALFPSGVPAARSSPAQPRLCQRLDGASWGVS

For `CCCCCCCCNC(=O)N1CCC(S(=O)(=O)c2ccc(CCNC[C@H](O)COc3ccc(O)cc3)cc2)CC1` [Example 47, 4-(4-{2-[(2S)-2-Hydroxy-3-(4-hydroxy-phenoxy)-propylamino]-ethyl}-benzenesulfonyl)-piperidine-1-carboxylic Acid Octylamide], the melting point was 52 to 56 °C, the EC50 [1] was 31 nM and the “IA(β3)” value [1] was 1.
For `O=C(NCc1cccc(F)c1)N1CCC(Nc2ccc(CCNC[C@H](O)COc3ccc(O)cc3)cc2)CC1` [Example 27, 4-(4-{2-[(2S)-2-Hydroxy-3-(4-hydroxy-phenoxy)-propylamino]-ethyl}-phenylamino)-piperidine-1-carboxylic Acid 3-fluoro-benzylamide], the melting point was 68 to 73 °C, the EC50 [1] was 60 nM and the “IA(β3)” value [1] was 0.86.
